A short description of data set [1]: Phase 1 crossover study: rosuvastatin plasma pharmacokinetics. Type of data set: in vivo, human. As to conditions: for AUC(0-inf) / half-life / AUC(0-t) / Cmax: human, plasma, oral, 10 mg. Here is the method:
The primary objective was to evaluate the pharmacokinetics of oral rosuvastatin when administered alone and in combination with oral AZD5718. […] Each participant received 5 single-dose oral study treatments (A-E), with a minimum washout period of 7 days between each treatment period. Participants were randomly assigned to treatments in the order A, B, C, D, E or B, A, C, D, E. Treatments were: […] […] Participants fasted for at least 10 hours before treatment and for at least 4 hours after treatment. Participants receiving treatment E consumed a high-fat breakfast 30 minutes before treatment. Water was permitted as desired except within 1 hour of administration. […] Doses were taken with 240 mL of water. […] At a minimum, each analytical run included a calibration curve, a matrix blank, a control zero sample (matrix blank containing internal standard), a reagent blank, and duplicate quality control samples at 3 concentrations within the calibration range. […] Both assessments were well within the acceptance criteria. […] The pharmacokinetic analysis set for rosuvastatin included all participants who received both rosuvastatin treatments. […] Statistical analyses were performed by […] using SAS version 9.4. Rosuvastatin pharmacokinetics were analyzed using a mixed-effects model, with log-transformed AUC, AUC0-last, and Cmax as the response variables; treatment sequence, period, and treatment as fixed effects; and participant nested within treatment sequence as a random effect. […] LS mean differences and 90%CIs for the effect of formulation or food for log-transformed variables were back transformed to geometric mean ratios and presented as percentages with 90% CIs.

In the next data set the test system is healthy volunteers. Nature of the data set: Phase 1 crossover study: safety and tolerability (adverse events). Conditions: rosuvastatin 10 mg, fasted, n = 12. The data set is classed as in vivo, human. The protocol: Each participant received 5 single‐dose oral study treatments (A‐E), with a minimum washout period of 7 days between each treatment period.
The safety set included all participants who received treatment in the study and for whom any postdose safety data were available. Safety was assessed throughout the study by monitoring adverse events, vital signs (systolic and diastolic blood pressure, pulse rate, and body temperature), and electrocardiographic parameters and by conducting physical examinations and laboratory assessments (hematology, blood chemistry, and urinalysis).

Details of data set [2]: method as in PMID 15116058. As to conditions: coadministered with gemfibrozil; cited from earlier work.
The test system of data set [3] is patients with acute coronary syndrome. Also on record: method as in PMID 20190281. Conditions: cited from earlier work.
The test system of data set [4] is patients with coronary artery disease. Also on record: method as in earlier work. Conditions: cited from earlier work.
The test system of data set [5] is patients receiving statins. Details: method as in PMID 28845751. As to conditions: cited from earlier work.
The subject of data set [6] is patients with coronary artery disease. Also on record: method as in PMID 28834471. Conditions: cited from earlier work.

Data on five molecules can be found in PMC7187334 (Clinical Pharmacology in Drug Development, 2019).

Like-named read-outs stand apart in the source and are kept apart here.

A word on the Cmax: it is the peak of the concentration-time curve.

With `CC(C)c1nc(N(C)S(C)(=O)=O)nc(-c2ccc(F)cc2)c1/C=C/[C@@H](O)C[C@@H](O)CC(=O)O` [Rosuvastatin, rosuvastatin], the “Rosuvastatin AUC0-inf (relative bioavailability), ratio of geometric LS means” value in data set [1] (coadministered with AZD5718 200 mg vs alone, 90% CI 86%-116%) was 100%. In addition, the “Rosuvastatin AUC0-last, ratio of geometric LS means” value in data set [1] (coadministered with AZD5718 200 mg vs alone, 90% CI 87%-106%) is recorded as 96%. Also, the “Rosuvastatin Cmax, ratio of geometric LS means” value in data set [1] (coadministered with AZD5718 200 mg vs alone, 90% CI 107%-146%) is 125%. The “Increase in rosuvastatin Cmax” value in data set [1] (coadministration with AZD5718 tablets vs alone) is given as “about 25%”; in data set [2], 2 fold. Besides, the AUC(0-inf) in data set [1] (rosuvastatin 10 mg alone, fasted, n = 9, read-out: Rosuvastatin AUC0-inf, arithmetic mean (SD)) was found to be 45.3 ng·h/mL; in data set [1] (rosuvastatin 10 mg alone, fasted, n = 9, read-out: Rosuvastatin AUC0-inf, geometric mean (%CV)), 41 ng·h/mL; in data set [1] (rosuvastatin 10 mg plus AZD5718 200-mg tablet, fasted, n = 10, read-out: Rosuvastatin AUC0-inf, arithmetic mean (SD)), 56.9 ng·h/mL; in data set [1] (rosuvastatin 10 mg plus AZD5718 200-mg tablet, fasted, n = 10, read-out: Rosuvastatin AUC0-inf, geometric mean (%CV)) it was 50.5 ng·h/mL. Further, the half-life was 960 min in data set [1] (rosuvastatin 10 mg alone, fasted, n = 9, read-out: Rosuvastatin t1/2 lambda z, arithmetic mean (SD) (converted)); 882 min in data set [1] (rosuvastatin 10 mg alone, fasted, n = 9, read-out: Rosuvastatin t1/2 lambda z, geometric mean (%CV) (converted)); 984 min in data set [1] (rosuvastatin 10 mg plus AZD5718 200-mg tablet, fasted, n = 10, read-out: Rosuvastatin t1/2 lambda z, arithmetic mean (SD) (converted)); 990 min in data set [1] (rosuvastatin 10 mg plus AZD5718 200-mg tablet, fasted, n = 10, read-out: Rosuvastatin t1/2 lambda z, geometric mean (%CV) (converted)). Moreover, the AUC(0-t) in data set [1] (rosuvastatin 10 mg alone, fasted, n = 12, read-out: Rosuvastatin AUC0-last, arithmetic mean (SD)) is 54.2 ng·h/mL; in data set [1] (rosuvastatin 10 mg alone, fasted, n = 12, read-out: Rosuvastatin AUC0-last, geometric mean (%CV)), 45.3 ng·h/mL; in data set [1] (rosuvastatin 10 mg plus AZD5718 200-mg tablet, fasted, read-out: Rosuvastatin AUC0-last, arithmetic mean (SD)), 49.4 ng·h/mL; in data set [1] (rosuvastatin 10 mg plus AZD5718 200-mg tablet, fasted, read-out: Rosuvastatin AUC0-last, geometric mean (%CV)) it was 43.5 ng·h/mL. The Cmax in data set [1] (rosuvastatin 10 mg alone, fasted, n = 12, read-out: Rosuvastatin Cmax, arithmetic mean (SD)) came out at 5.56 ng/mL; in data set [1] (rosuvastatin 10 mg alone, fasted, n = 12, read-out: Rosuvastatin Cmax, geometric mean (%CV)), 4.59 ng/mL; in data set [1] (rosuvastatin 10 mg plus AZD5718 200-mg tablet, fasted, read-out: Rosuvastatin Cmax, arithmetic mean (SD)) it was 6.74 ng/mL; in data set [1] (rosuvastatin 10 mg plus AZD5718 200-mg tablet, fasted, read-out: Rosuvastatin Cmax, geometric mean (%CV)), 5.74 ng/mL. The “Rosuvastatin tmax, median (range)” value in data set [1] (rosuvastatin 10 mg alone, fasted, n = 12) is 5.00 (0.50‐6.00) h. In addition, the “Participants with influenza-like illness” value in the data set with healthy volunteers is listed as 0 n (%). Besides, the “Increase in rosuvastatin AUC” value in data set [2] was 2 fold.

Take `C[C@H](C#Cc1ccc(Cc2ccc(F)cc2)s1)N(O)C(N)=O` [VIA‐2291]: the “Left ventricular ejection fraction” value in data set [3] (dose-dependent) is recorded as “improved left ventricular ejection fraction”. In data set [3] (phase 2), the “Appearance of new coronary lesions” value is on record as “prevented the appearance of new coronary lesions”, the “Leukotriene B4 production” value is reported as “reduced leukotriene B4 production” and the Noncalcified plaque volume entry is given as “lowered noncalcified plaque volume”.

In the case of `CC(c1cc2ccccc2s1)N(O)C(N)=O` (centres unmarked) [zileuton], in data set [4], the “Flow-mediated dilation in the brachial artery” value was “improved flow‐mediated dilation” and the Leukotriene production entry is listed as “reduced leukotriene production”.

Consider “canakinumab: anti-interleukin-1β antibody”, for which, in data set [5] (P = .021), the “Hazard ratio, recurrent cardiovascular events vs placebo” value was 0.85. In addition, the “Rate of recurrent cardiovascular events” value in data set [5] (canakinumab together with statins, placebo and statins 4.50) is 3.90 events per 100 person‐years.

B1: evolocumab: proprotein convertase subtilisin/kexin type 9-neutralizing antibody (antibody, chains of the INN, looked up, V domains shown)
VH: EVQLVQSGAEVKKPGASVKVSCKASGYTLTSYGISWVRQAPGQGLEWMGWVSFYNGNTNYAQKLQGRGTMTTDPSTSTAYMELRSLRSDDTAVYYCARGYGMDVWGQGTTVTVSS
VL: ESALTQPASVSGSPGQSITISCTGTSSDVGGYNSVSWYQQHPGKAPKLMIYEVSNRPSGVSNRFSGSKSGNTASLTISGLQAEDEADYYCNSYTSTSMVFGGGTKLTVL
B1: the “Hazard ratio, recurrent cardiovascular events vs placebo” value in data set [6] (P < .001) was 0.85. Moreover, the “LDL cholesterol level, median” value in data set [6] (evolocumab together with statins) is 30 mg/dL. Moreover, in data set [6] (evolocumab together with statins, placebo 11.3%), the “Rate of recurrent cardiovascular events” value is given as 9.8%.
